Our source for the IC50 values is patent publication US12421254B2, “KRAS modulators and uses thereof” (Quanta Therapeutics, Inc., priority 2023, dated 2025).

Structures are written as SMILES.

The target of test [1] is GST-tagged KRAS-G12V (2-169) (Homo sapiens, UniProt P01116, G12V). Kind of test: Nucleotide exchange assay (NEA), SOS-mediated, HTRF, KRAS G12V. Format: biochemical. Particulars: Table 4; IC50 extracted at 90 min; 80 nM SOS. In short, it runs like this: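 GST-KRAS-G12V (2-169), 0.25 nM, pre-incubated 1 h at RT with compound, then SOS1cat (564-1049) 80 nM and GTP-DY-647P1 150 nM added in HEPES pH 7.3 buffer with MgCl2 and DTT. HTRF via anti-GST Tb cryptate read over 90 min; IC50 from 4-parameter fit at 90 min, blanked to no-SOS reactions.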
Sequence of GST-tagged KRAS-G12V (2-169) (P01116 2-169 isoform P01116-2 G12V): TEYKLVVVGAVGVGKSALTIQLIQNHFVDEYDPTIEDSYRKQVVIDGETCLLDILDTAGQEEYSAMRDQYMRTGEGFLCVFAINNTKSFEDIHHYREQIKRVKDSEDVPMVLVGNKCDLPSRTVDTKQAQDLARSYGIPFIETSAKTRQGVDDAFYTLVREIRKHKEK
In general terms: TR-FRET usually uses a lanthanide donor and a delayed reading to cut background.

Test [2] concerns the target GST-tagged KRAS-G12D (2-169) (Homo sapiens, UniProt P01116, G12D). Kind of test: Nucleotide exchange assay (NEA), SOS-mediated, HTRF, KRAS G12D. The note with it: Table 4; IC50 extracted at 30 min; 20 nM SOScat; read-out: NEA G12D IC50. Format: biochemical. The gist of the method:
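Compound preincubated 1 h at RT with 0.25 nM GST-KRAS-G12D (2-169) and anti-GST Tb donor, then 20 nM SOS1cat (564-1049) and 150 nM GTP-DY-647P1 added; pH 7.3 HEPES buffer with MgCl2 and DTT. HTRF monitored at RT; % inhibition versus DMSO and no-SOS blank, 4-parameter IC50 taken at 30 min.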

In test [3] the test system is phospho-ERK in SW620 (KRAS-G12V) cells. Kind of test: pERK In Cell Western (ICW) assay (Method B), SW620. Format: cell-based. Particulars: Homo sapiens, SW-620, 3 h, Table 4. In short, it runs like this:
(§1)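 SW620 (KRAS-G12V), GP2D (KRAS-G12D) and AGS cells, seeded overnight, were exposed to compounds (½-log, 9-point) for 3 h at 37°C, then fixed and stained for phospho-ERK. Infrared imaging; pERK normalized to DRAQ5 DNA stain, expressed as percent of blank control, IC50 by 4-parameter fit.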

For test [4], the system named is phospho-ERK in GP2D (KRAS-G12D) cells. Briefly: pERK In Cell Western (ICW) assay (Method B), GP2D. Format: cell-based. Particulars: GP2d, 3 h, Table 4. The gist of the method: as §1

Sequence of GST-tagged KRAS-G12D (2-169) (P01116 2-169 isoform P01116-2 G12D): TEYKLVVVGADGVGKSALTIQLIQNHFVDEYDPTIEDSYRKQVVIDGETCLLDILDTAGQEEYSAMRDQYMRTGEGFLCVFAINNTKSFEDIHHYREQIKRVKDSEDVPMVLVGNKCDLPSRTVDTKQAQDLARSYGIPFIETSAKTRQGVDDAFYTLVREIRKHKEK

As a reminder, the IC50 is the midpoint of a concentration-inhibition curve. Regarding `C[C@@]1(O)CCCN(c2nc(OCC3(CN4CCOCC4)CC3)nc(N3CC4(C3)SCc3sc(N)c(C#N)c34)n2)C1` [Compound 73, 2-amino-1′-[4-[(3R)-3-hydroxy-3-methyl-1-piperidyl]-6-[[1-(morpholinomethyl)cyclopropyl]methoxy]-1,3,5-triazin-2-yl]spiro[6H-thieno[2,3-c]thiophene-4,3′-azetidine]-3-carbonitrile], the IC50 in test [1] was < 10 nM; in test [2] it was < 10 nM; in test [3], 10 to 100 nM; in test [4], 10 to 100 nM.

Take `N#Cc1c(N)sc2c1C1(CC2)CN(c2nc(OC[C@@]34CCCN3C[C@H](F)C4)nc(N3CCCCC(C#N)C3)n2)C1` (stereo partly drawn) [Compound 74, 2-amino-1′-[4-(3-cyanoazepan-1-yl)-6-[[(2R,8S)-2-fluoro-1,2,3,5,6,7-hexahydropyrrolizin-8-yl]methoxy]-1,3,5-triazin-2-yl]spiro[5,6-dihydrocyclopenta[b]thiophene-4,3′-azetidine]-3-carbonitrile]: the IC50 was < 10 nM in test [1], 10 to 100 nM in test [2], 100 to 1000 nM in test [3] and 100 to 1000 nM in test [4].

In the case of `N#CCC1(O)CCCN(c2nc(OC[C@@]34CCCN3C[C@H](F)C4)nc(N3CC4(CCc5sc(N)c(C#N)c54)C3)n2)C1` (stereo partly drawn) [Compound 79, 2-amino-1′-[4-[3-(cyanomethyl)-3-hydroxy-1-piperidyl]-6-[[(2R,8S)-2-fluoro-1,2,3,5,6,7-hexahydropyrrolizin-8-yl]methoxy]-1,3,5-triazin-2-yl]spiro[5,6-dihydrocyclopenta[b]thiophene-4,3′-azetidine]-3-carbonitrile; 2,2,2-trifluoroacetic acid], the IC50 is < 10 nM in test [1], 10 to 100 nM in test [2], 1000 to 20000 nM in test [3] and 100 to 1000 nM in test [4].

For `N#Cc1c(N)sc2c1C1(CC2)CN(c2nc(OC[C@@]34CCCN3C[C@H](F)C4)nc(N3CCC[C@@H](O)[C@@H](O)C3)n2)C1` [Compound 81, 2-amino-1′-[4-[(3S,4R)-3,4-dihydroxyazepan-1-yl]-6-[[(2R,8S)-2-fluoro-1,2,3,5,6,7-hexahydropyrrolizin-8-yl]methoxy]-1,3,5-triazin-2-yl]spiro[5,6-dihydrocyclopenta[b]thiophene-4,3′-azetidine]-3-carbonitrile; 2,2,2-trifluoroacetic acid], the IC50 was < 10 nM in test [1], < 10 nM in test [2], 1000 to 20000 nM in test [3] and 100 to 1000 nM in test [4].

With `CC1(O)CC(F)CN(c2nc(OC[C@@]34CCCN3C[C@H](F)C4)nc(N3CC4(CCc5sc(N)c(C#N)c54)C3)n2)C1` (stereo partly drawn) [Compound 82, 2′-amino-1-(4-(5-fluoro-3-hydroxy-3-methylpiperidin-1-yl)-6-(((2R,7aS)-2-fluorotetrahydro-1H-pyrrolizin-7a(5H)-yl)methoxy)-1,3,5-triazin-2-yl)-5′,6′-dihydrospiro[azetidine-3,4′-cyclopenta[b]thiophene]-3′-carbonitrile], the IC50 in test [1] was < 10 nM; in test [2], < 10 nM; in test [3], 100 to 1000 nM; in test [4], 10 to 100 nM.

As for `N#Cc1c(N)sc2c1C1(CC2)CN(c2nc(NCc3ccn[nH]3)nc(OC[C@@]34CCCN3C[C@H](F)C4)n2)C1` [Compound 84, 2-amino-1′-[4-[[(2R,8S)-2-fluoro-1,2,3,5,6,7-hexahydropyrrolizin-8-yl]methoxy]-6-(1H-pyrazol-5-ylmethylamino)-1,3,5-triazin-2-yl]spiro[5,6-dihydrocyclopenta[b]thiophene-4,3′-azetidine]-3-carbonitrile], the IC50 in test [1] was 100 to 1000 nM; in test [2] it was 100 to 1000 nM; in test [3] it was ≥ 20000 nM; in test [4] it was 1000 to 20000 nM.

Turning to `N#Cc1c(N)sc2c1C1(CC2)CN(c2nc(OC[C@@]34CCCN3C[C@H](F)C4)nc(N3CCCC(O)(CO)C3)n2)C1` (stereo partly drawn) [Compound 85, 2-amino-1′-[4-[3-hydroxy-3-(hydroxymethyl)-1-piperidyl]-6-[[(2R,8S)-2-fluoro-1,2,3,5,6,7-hexahydropyrrolizin-8-yl]methoxy]-1,3,5-triazin-2-yl]spiro[5,6-dihydrocyclopenta[b]thiophene-4,3′-azetidine]-3-carbonitrile], the IC50 in test [1] was in the range of 10 to 100 nM; in test [2], 100 to 1000 nM; in test [3], 1000 to 20000 nM; in test [4], 1000 to 20000 nM.

Take `N#Cc1c(N)sc2c1C1(CC2)CN(c2nc(OCC3(CN4CCOCC4)CC3)nc(N3CCCCC(C#N)C3)n2)C1` (stereo not drawn) [Compound 86, 2-amino-1′-[4-(3-cyanoazepan-1-yl)-6-[[1-(morpholinomethyl)cyclopropyl]methoxy]-1,3,5-triazin-2-yl]spiro[5,6-dihydrocyclopenta[b]thiophene-4,3′-azetidine]-3-carbonitrile]: the IC50 in test [1] is 10 to 100 nM; in test [2] it was 10 to 100 nM; in test [3], 1000 to 20000 nM; in test [4], 100 to 1000 nM.

As to `N#Cc1c(N)sc2c1C1(CC2)CN(c2nc(OC[C@@]34CCCN3C[C@H](F)C4)nc(N3CCCC(O)(C(F)F)C3)n2)C1` (stereo partly drawn) [Compound 87, 2-amino-1′-[4-[3-(difluoromethyl)-3-hydroxy-1-piperidyl]-6-[[(2R,8S)-2-fluoro-1,2,3,5,6,7-hexahydropyrrolizin-8-yl]methoxy]-1,3,5-triazin-2-yl]spiro[5,6-dihydrocyclopenta[b]thiophene-4,3′-azetidine]-3-carbonitrile], the IC50 in test [1] was in the range of 10 to 100 nM; in test [2], 10 to 100 nM; in test [3], 1000 to 20000 nM; in test [4] it was 100 to 1000 nM.

In the case of `N#Cc1c(N)sc2c1C1(CC2)CN(c2nc(OC[C@@]34CCCN3C[C@H](F)C4)nc(N3CCCOCC3)n2)C1` [Compound 89, 2-amino-1′-[4-[[(2R,8S)-2-fluoro-1,2,3,5,6,7-hexahydropyrrolizin-8-yl]methoxy]-6-(1,4-oxazepan-4-yl)-1,3,5-triazin-2-yl]spiro[5,6-dihydrocyclopenta[b]thiophene-4,3′-azetidine]-3-carbonitrile], the IC50 in test [1] was < 10 nM; in test [2] it was 10 to 100 nM; in test [3], 100 to 1000 nM; in test [4], 100 to 1000 nM.

`CC1(O)CC(F)CN(c2nc(OCC3(CN4CCOCC4)CC3)nc(N3CC4(CCc5sc(N)c(C#N)c54)C3)n2)C1` (stereo not drawn) [Compound 93, 2′-amino-1-(4-(5-fluoro-3-hydroxy-3-methylpiperidin-1-yl)-6-((1-(morpholinomethyl)cyclopropyl)methoxy)-1,3,5-triazin-2-yl)-5′,6′-dihydrospiro[azetidine-3,4′-cyclopenta[b]thiophene]-3′-carbonitrile]: the IC50 in test [1] was < 10 nM; in test [2], < 10 nM; in test [3] it was 10 to 100 nM; in test [4] it was 10 to 100 nM.

Regarding `CC(c1cccnc1N)N(C)c1nc(OCC2(CN3CCOCC3)CC2)nc(N2CC3(CCc4sc(N)c(C#N)c43)C2)n1` (stereo not drawn) [Compound 97, 2-amino-1′-[4-[1-(2-amino-3-pyridyl)ethyl-methyl-amino]-6-[[1-(morpholinomethyl)cyclopropyl]methoxy]-1,3,5-triazin-2-yl]spiro[5,6-dihydrocyclopenta[b]thiophene-4,3′-azetidine]-3-carbonitrile], the IC50 in test [1] is < 10 nM; in test [2] it was 10 to 100 nM; in test [3] it was 100 to 1000 nM; in test [4], 1000 to 20000 nM.

As to `C[C@@]1(O)CCCN(c2nc(OCC3(CN4CCOCC4)CC3)nc(N3CC4(C3)c3c(sc(N)c3C#N)CC4(F)F)n2)C1` [Compound 98, 2-amino-5,5-difluoro-1′-[4-[(3R)-3-hydroxy-3-methyl-1-piperidyl]-6-[[1-(morpholinomethyl)cyclopropyl]methoxy]-1,3,5-triazin-2-yl]spiro[6H-cyclopenta[b]thiophene-4,3′-azetidine]-3-carbonitrile], the IC50 in test [1] is < 10 nM; in test [2] it was < 10 nM; in test [3], 100 to 1000 nM; in test [4], 10 to 100 nM.

With `N#CCC1(O)CCCN(c2nc(OCC3(CN4CCOCC4)CC3)nc(N3CC4(CCc5sc(N)c(C#N)c54)C3)n2)C1` (stereo not drawn) [Compound 101, 2-amino-1′-[4-[3-(cyanomethyl)-3-hydroxy-1-piperidyl]-6-[[1-(morpholinomethyl)cyclopropyl]methoxy]-1,3,5-triazin-2-yl]spiro[5,6-dihydrocyclopenta[b]thiophene-4,3′-azetidine]-3-carbonitrile], the IC50 in test [1] was < 10 nM; in test [2], 10 to 100 nM; in test [3], 1000 to 20000 nM; in test [4] it was 100 to 1000 nM.

As for `CN(C)CC1(COc2nc(N3CC4(C3)SCc3sc(N)c(C#N)c34)nc(N3CCC[C@@](C)(O)C3)n2)CC1(F)F` (stereo partly drawn) [Compound 104, 2-amino-1′-[4-[[1-[(dimethylamino)methyl]-2,2-difluoro-cyclopropyl]methoxy]-6-[(3R)-3-hydroxy-3-methyl-1-piperidyl]-1,3,5-triazin-2-yl]spiro[6H-thieno[2,3-c]thiophene-4,3′-azetidine]-3-carbonitrile], the IC50 in test [1] was < 10 nM; in test [2], < 10 nM; in test [3], 10 to 100 nM; in test [4], < 10 nM.
